Patent US10813886B2, “Methods and systems for improved bioavailability of active pharmaceutical ingredients including esomeprazole” (priority 2013, dated 2020)
Converted amounts (≈) assume the structure as drawn.

Assays:
[1] = human, in vivo
Text: Patients were selected from volunteers aged 18 to 65 years, inclusive, with a Body Mass Index (BMI) between […] inclusive and free from any significant diseases including cardiac, renal and gastrointestinal disease. […] The crossover design eliminated potential treatment effects on the outcome, as well as effectively allowing the subject to serve as their own control. Each dosing occasion was separated by a 7-14 day washout period. Fasting conditions represented an overnight fast of at least 10 hours and fed state was after a high calorie, high fat breakfast 30 minutes prior to dosing.
The % EMT was quantified from human plasma according to methods based on the FDA Bioanalytical Method Validation Guide for Industry and the EMA Guideline on bioanalytical method validation (York Bioanalytical Solutions). Briefly, plasma samples were submitted to supported liquid extraction and liquid chromatography with tandem mass spectrometric detection (lower limit of quantification 5.00 ng/ml with a sample aliquot volume of 100 microliters). The analytes detected were esomeprazole, 5-hydroxyomeprazole, and omeprazole sulphone and were validated against commercial samples and calibration standards. […] Calibration samples were obtained commercially as follows: esomeprazole (Sigma-Aldrich), 5-hydroxyomeprazole, and omeprazole sulphone (Toronto Chemicals Inc.). Internal standards omeprazole d3, 5-hydroxyomeprazole d3 and omeprazole sulphone-d3 were also utilized (Toronto Chemicals Inc.). Plasma samples were stored at −20° C. Data was collected using Analyst software (Applied Biosystems-Sciex) in combination with Watson LIMS (Thermo Fisher Scientific); peak area ratios were used to generate calibration curves using regression functions.

[2] = as the magnesium trihydrate, cited from earlier work
[3] = cited from earlier work

- Intra-subject Coefficient of Variation of AUCinf [1]: 40.85 CV %
- Intra-subject Coefficient of Variation of AUCt [1]: 83.08 CV %
- Intra-subject Coefficient of Variation of Cmax [1]: 97.51 CV %
Compound: COc1ccc2nc([S@@+]([O-])Cc3ncc(C)c(OC)c3C)[nH]c2c1 [Esomeprazole]
- solubility in heptane [2]: insoluble
- solubility in water ([2]; in water at 25° C.): 1500 µg/mL (≈ 4.34 mM)
- stability in acid conditions ([3]; acid conditions): degrades
- stability at pH 6.8 ([3]; pH 6.8): stable
